Test results: patent US12428406B2 (PMV Pharmaceuticals, Inc., priority 2019, dated 2025)

Each molecule was assayed against T1, p53 Y220C (Homo sapiens, UniProt P04637, Y220C) (assay: In vitro DNA binding activity assay (HTRF / TR-FRET): stabilization of p53 Y220C and increase of its DNA binding activity). Conditions: recombinant His-tagged p53 Y220C DNA binding domain (aa 94-312), biotin-labeled consensus DNA, incubated at 27° C. or 29° C. for 60 min.
T1 construct: The recombinant protein was a truncation mutant containing only amino acids 94-312 of p53; made in house; host or cells: E. coli
T1 sequence (P04637 94-312, change not shown): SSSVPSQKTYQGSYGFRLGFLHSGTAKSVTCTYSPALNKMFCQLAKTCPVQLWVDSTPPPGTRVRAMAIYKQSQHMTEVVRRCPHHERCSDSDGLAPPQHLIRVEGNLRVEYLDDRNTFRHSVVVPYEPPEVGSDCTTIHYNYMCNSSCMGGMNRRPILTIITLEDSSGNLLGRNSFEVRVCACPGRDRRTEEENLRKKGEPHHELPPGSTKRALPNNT
Assay type: biochemical
How it was run: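 Homogeneous time-resolved fluorescence with E. coli-derived p53 Y220C and biotinylated consensus DNA. Room-temperature incubations of 15 and 20 min precede reading. SC150 denotes the compound concentration required for 50% increased DNA binding.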
For `CN1CCC(Nc2cccc3c2cc(C#CCNc2ccc(S(C)(=O)=O)cc2OC(F)(F)F)n3CC(F)(F)F)CC1` [Compound 466A], the “SC150 (concentration of the compound required to increase the DNA binding activity by 50%)” value was “+ (+ = 0 μM ≤ SC150 < 0.05 μM)”.
For `COc1cc(C(C)(C)C#N)ncc1NCC#Cc1cc2c(NC3CCN(C)CC3)cccc2n1CC(F)(F)F` [Compound 468A, 2-{4-methoxy-5-[(3-{4-[(1-methylpiperidin-4-yl)amino]-1-(2,2,2-trifluoroethyl)-1H-indol-2-yl}prop-2-yn-1-yl)amino]pyridin-2-yl}-2-methylpropanenitrile], the “SC150 (concentration of the compound required to increase the DNA binding activity by 50%)” value was “+ (+ = 0 μM ≤ SC150 < 0.05 μM)”.
For `COc1cc(S(=O)(=O)Nc2ccon2)ccc1NCC#Cc1cc2c(NC3CCN(C)CC3)cccc2n1CC(F)(F)F` [Compound 469A, 3-methoxy-4-[(3-{4-[(1-methylpiperidin-4-yl)amino]-1-(2,2,2-trifluoroethyl)-1H-indol-2-yl}prop-2-yn-1-yl)amino]-N-(1,2-oxazol-3-yl)benzene-1-sulfonamide], the “SC150 (concentration of the compound required to increase the DNA binding activity by 50%)” value was “+ (+ = 0 μM ≤ SC150 < 0.05 μM)”.
With `COc1cc(S(=O)(=O)NC2CCOCC2)ccc1NCC#Cc1cc2c(NC3CCN(C)CC3)cccc2n1CC(F)(F)F` [Compound 470A, 3-methoxy-4-[(3-{4-[(1-methylpiperidin-4-yl)amino]-1-(2,2,2-trifluoroethyl)-1H-indol-2-yl}prop-2-yn-1-yl)amino]-N-(oxan-4-yl)benzene-1-sulfonamide] the “SC150 (concentration of the compound required to increase the DNA binding activity by 50%)” value was “+ (+ = 0 μM ≤ SC150 < 0.05 μM)”.
With `COc1cc(S(=O)(=O)Nc2cc(C)on2)ccc1NCC#Cc1cc2c(NC3CCN(C)CC3)cccc2n1CC(F)(F)F` [Compound 471A, 3-methoxy-N-(5-methyl-1,2-oxazol-3-yl)-4-[(3-{4-[(1-methylpiperidin-4-yl)amino]-1-(2,2,2-trifluoroethyl)-1H-indol-2-yl}prop-2-yn-1-yl)amino]benzene-1-sulfonamide] the “SC150 (concentration of the compound required to increase the DNA binding activity by 50%)” value was “+ (+ = 0 μM ≤ SC150 < 0.05 μM)”.
For `COc1cc(S(=O)(=O)N(C)CCO)ccc1NCC#Cc1cc2c(NC3CCN(C)CC3)cccc2n1CC(F)(F)F` [Compound 472A, N-(2-hydroxyethyl)-3-methoxy-N-methyl-4-[(3-{4-[(1-methylpiperidin-4-yl)amino]-1-(2,2,2-trifluoroethyl)-1H-indol-2-yl}prop-2-yn-1-yl)amino]benzene-1-sulfonamide], the “SC150 (concentration of the compound required to increase the DNA binding activity by 50%)” value was “+ (+ = 0 μM ≤ SC150 < 0.05 μM)”.
For `COc1cc(S(=O)(=O)N(C)C)ccc1NCC#Cc1cc2c(NC3CCN(C)CC3)cccc2n1CC(F)(F)F` [Compound 473A, 3-methoxy-N,N-dimethyl-4-[(3-{4-[(1-methylpiperidin-4-yl)amino]-1-(2,2,2-trifluoroethyl)-1H-indol-2-yl}prop-2-yn-1-yl)amino]benzene-1-sulfonamide], the “SC150 (concentration of the compound required to increase the DNA binding activity by 50%)” value was “+ (+ = 0 μM ≤ SC150 < 0.05 μM)”.
In the case of `COc1cc(S(N)(=O)=O)ccc1NCC#Cc1cc2c(NC3CCN(C)CC3)cc(F)cc2n1CC(F)(F)F` [Compound 474A, 4-[(3-{6-fluoro-4-[(1-methylpiperidin-4-yl)amino]-1-(2,2,2-trifluoroethyl)-1H-indol-2-yl}prop-2-yn-1-yl)amino]-3-methoxybenzene-1-sulfonamide], the “SC150 (concentration of the compound required to increase the DNA binding activity by 50%)” value is reported as “+ (+ = 0 μM ≤ SC150 < 0.05 μM)”.
`COc1cc(S(C)(=O)=O)ccc1NCC#Cc1cc2c(NC3CCN(C)CC3)cc(F)cc2n1CC(F)(F)F` [Compound 475A, 6-fluoro-2-{3-[(4-methanesulfonyl-2-methoxyphenyl)amino]prop-1-yn-1-yl}-N-(1-methylpiperidin-4-yl)-1-(2,2,2-trifluoroethyl)-1H-indol-4-amine] was tested, and the “SC150 (concentration of the compound required to increase the DNA binding activity by 50%)” value was “+++ (+++ = 0.1 μM ≤ SC150 < 0.2 μM)”.
`COCCN(C)S(=O)(=O)c1ccc(NCC#Cc2cc3c(NC4CCN(C)CC4)cccc3n2CC(F)(F)F)c(OC)c1` [Compound 477A, 3-methoxy-N-(2-methoxyethyl)-N-methyl-4-[(3-{4-[(1-methylpiperidin-4-yl)amino]-1-(2,2,2-trifluoroethyl)-1H-indol-2-yl}prop-2-yn-1-yl)amino]benzene-1-sulfonamide] was tested, and the “SC150 (concentration of the compound required to increase the DNA binding activity by 50%)” value was “+ (+ = 0 μM ≤ SC150 < 0.05 μM)”.
In the case of `COc1cc(S(C)(=O)=O)ccc1N(C)CC#Cc1cc2c(NC3CCN(C)CC3)cccc2n1CC(F)(F)F` [Compound 478A, 2-{3-[(4-methanesulfonyl-2-methoxyphenyl) (methyl)amino]prop-1-yn-1-yl}-N-(1-methylpiperidin-4-yl)-1-(2,2,2-trifluoroethyl)-1H-indol-4-amine], the “SC150 (concentration of the compound required to increase the DNA binding activity by 50%)” value is reported as “++++ (++++ = 0.2 μM ≤ SC150 < 1 μM)”.
For `COc1cc(S(=O)(=O)N2CCN(C(C)=O)CC2)ccc1NCC#Cc1cc2c(NC3CCN(C)CC3)cccc2n1CC(F)(F)F` [Compound 479A], the “SC150 (concentration of the compound required to increase the DNA binding activity by 50%)” value was “+ (+ = 0 μM ≤ SC150 < 0.05 μM)”.
For `COc1cc(S(=O)(=O)N2CCOCC2)ccc1NCC#Cc1cc2c(NC3CCN(C)CC3)cccc2n1CC(F)(F)F` [Compound 480A, 2-(3-{[2-methoxy-4-(morpholine-4-sulfonyl)phenyl]amino}prop-1-yn-1-yl)-N-(1-methylpiperidin-4-yl)-1-(2,2,2-trifluoroethyl)-1H-indol-4-amine], the “SC150 (concentration of the compound required to increase the DNA binding activity by 50%)” value was “+ (+ = 0 μM ≤ SC150 < 0.05 μM)”.
In the case of `CNC(=O)c1ccc(NCC#Cc2cc3c(NC4CCN(C)CC4)cccc3n2CC(F)(F)F)c(OC)c1` [Compound 482A, 3-methoxy-N-methyl-4-[(3-{4-[(1-methylpiperidin-4-yl)amino]-1-(2,2,2-trifluoroethyl)-1H-indol-2-yl}prop-2-yn-1-yl)amino]benzamide], the “SC150 (concentration of the compound required to increase the DNA binding activity by 50%)” value is reported as “+ (+ = 0 μM ≤ SC150 < 0.05 μM)”.
With `COc1cc(S(=O)(=O)N(CCO)CCO)ccc1NCC#Cc1cc2c(NC3CCN(C)CC3)cccc2n1CC(F)(F)F` [Compound 483A, N,N-bis(2-hydroxyethyl)-3-methoxy-4-[(3-{4-[(1-methylpiperidin-4-yl)amino]-1-(2,2,2-trifluoroethyl)-1H-indol-2-yl}prop-2-yn-1-yl)amino]benzene-1-sulfonamide] the “SC150 (concentration of the compound required to increase the DNA binding activity by 50%)” value was “+ (+ = 0 μM ≤ SC150 < 0.05 μM)”.
For `CNS(=O)(=O)c1ccc(NCC#Cc2cc3c(NC4CCN(C)CC4)cccc3n2CC(F)(F)F)c(OC)c1` [Compound 484A, 3-methoxy-N-methyl-4-[(3-{4-[(1-methylpiperidin-4-yl)amino]-1-(2,2,2-trifluoroethyl)-1H-indol-2-yl}prop-2-yn-1-yl)amino]benzene-1-sulfonamide], the “SC150 (concentration of the compound required to increase the DNA binding activity by 50%)” value was “+ (+ = 0 μM ≤ SC150 < 0.05 μM)”.
For `COc1cc(S(=O)(=O)N2CCN(C)CC2)ccc1NCC#Cc1cc2c(NC3CCN(C)CC3)cccc2n1CC(F)(F)F` [Compound 485A, 2-[3-({2-methoxy-4-[(4-methylpiperazin-1-yl)sulfonyl]phenyl}amino)prop-1-yn-1-yl]-N-(1-methylpiperidin-4-yl)-1-(2,2,2-trifluoroethyl)-1H-indol-4-amine], the “SC150 (concentration of the compound required to increase the DNA binding activity by 50%)” value was “+ (+ = 0 μM ≤ SC150 < 0.05 μM)”.
`CN1CCC(Nc2cccc3c2cc(C#CCNc2ccc(S(C)(=O)=O)cc2O)n3CC(F)(F)F)CC1` [Compound 486A, 5-methanesulfonyl-2-[(3-{4-[(1-methylpiperidin-4-yl)amino]-1-(2,2,2-trifluoroethyl)-1H-indol-2-yl}prop-2-yn-1-yl)amino]phenol] was tested, and the “SC150 (concentration of the compound required to increase the DNA binding activity by 50%)” value was “+ (+ = 0 μM ≤ SC150 < 0.05 μM)”.
With `COc1cc(NC2CCN(C)CC2)c2cc(C#CCNc3ccc(S(C)(=O)=O)cc3OC)n(CC(F)(F)F)c2c1` [Compound 487A, 2-{3-[(4-methanesulfonyl-2-methoxyphenyl)amino]prop-1-yn-1-yl}-6-methoxy-N-(1-methylpiperidin-4-yl)-1-(2,2,2-trifluoroethyl)-1H-indol-4-amine] the “SC150 (concentration of the compound required to increase the DNA binding activity by 50%)” value was “++ (++ = 0.05 μM ≤ SC150 < 0.1 μM)”.
With `CN1CCC(Nc2cccc3c2cc(C#CCOc2ccc(S(C)(=O)=O)cc2N(C)C)n3CC(F)(F)F)CC1` [Compound 488A, 2-{3-[2-(dimethylamino)-4-methanesulfonylphenoxy]prop-1-yn-1-yl}-N-(1-methylpiperidin-4-yl)-1-(2,2,2-trifluoroethyl)-1H-indol-4-amine] the “SC150 (concentration of the compound required to increase the DNA binding activity by 50%)” value was “+++ (+++ = 0.1 μM ≤ SC150 < 0.2 μM)”.
With `CN1CCC(Nc2cccc3c2cc(C#CCNc2ccc(S(C)(=O)=O)cc2OCC#N)n3CC(F)(F)F)CC1` [Compound 489A, 2-{5-methanesulfonyl-2-[(3-{4-[(1-methylpiperidin-4-yl)amino]-1-(2,2,2-trifluoroethyl)-1H-indol-2-yl}prop-2-yn-1-yl)amino]phenoxy} acetonitrile] the “SC150 (concentration of the compound required to increase the DNA binding activity by 50%)” value was “+ (+ = 0 μM ≤ SC150 < 0.05 μM)”.
With `CN1CCC(Nc2cccc3c2cc(C#CCNc2ccc(S(C)(=O)=O)cc2OCF)n3CC(F)(F)F)CC1` [Compound 490A, 2-(3-{[2-(fluoromethoxy)-4-methanesulfonylphenyl]amino}prop-1-yn-1-yl)-N-(1-methylpiperidin-4-yl)-1-(2,2,2-trifluoroethyl)-1H-indol-4-amine] the “SC150 (concentration of the compound required to increase the DNA binding activity by 50%)” value was “+ (+ = 0 μM ≤ SC150 < 0.05 μM)”.
In the case of `COc1cc(C(=O)N2CCOCC2)ccc1NCC#Cc1cc2c(NC3CCN(C)CC3)cccc2n1CC(F)(F)F` [Compound 491A], the “SC150 (concentration of the compound required to increase the DNA binding activity by 50%)” value is reported as “+ (+ = 0 μM ≤ SC150 < 0.05 μM)”.
With `COc1cc(C(=O)N2CCC(O)CC2)ccc1NCC#Cc1cc2c(NC3CCN(C)CC3)cccc2n1CC(F)(F)F` [Compound 492A] the “SC150 (concentration of the compound required to increase the DNA binding activity by 50%)” value was “+ (+ = 0 μM ≤ SC150 < 0.05 μM)”.
With `COc1cncc(-c2ccc(NCC#Cc3cc4c(NC5CCN(C)CC5)cccc4n3CC(F)(F)F)c(OC)c2)c1` [Compound 494A, 2-(3-{[2-methoxy-4-(5-methoxypyridin-3-yl)phenyl]amino}prop-1-yn-1-yl)-N-(1-methylpiperidin-4-yl)-1-(2,2,2-trifluoroethyl)-1H-indol-4-amine] the “SC150 (concentration of the compound required to increase the DNA binding activity by 50%)” value was “+ (+ = 0 μM ≤ SC150 < 0.05 μM)”.
